The text below walks through data of article PMC9862037, “Interactions of Mycotoxin Alternariol with Cytochrome P450 Enzymes and OATP Transporters” (Metabolites, 2022).

Common to all, as to format: biochemical
The target in series [1] is T1, CYP2D6 (Homo sapiens, UniProt P10635).
T1 construct: purchased Merck; host or cells: yeast (inferred from the description of the CYPnull control, 'processed identically')
The settings on record: 50 μM AOH. The procedure:
(§1) The potential inhibitory effects of AOH on CYP2C9, 2C19, 2D6, and 3A4 enzymes were tested in vitro employing CypExpress human kits, using the substrates recommended by the U.S. Food and Drug Administration (FDA; https://www.fda.gov/drugs/drug-interactions-labeling/drug-development-and-drug-interactions-table-substrates-inhibitors-and-inducers; accessed on 19 December 2022) (diclofenac, S-mephenytoin, dextromethorphan, and testosterone, respectively). The impacts of increasing concentrations of AOH (0.00, 0.05, 0.50, 2.0, 5.0, 10, 25, 30, and 50 μM) were examined on diclofenac 4′-hydroxylation (CYP2C9), S-mephenytoin 4-hydroxylation (CYP2C19), dextromethorphan demethylation (CYP2D6), and testosterone 6β-hydroxylation (CYP3A4) as described previously, without modifications. In these assays, the substrates and products were quantified by HPLC-UV [28].
(§2) IC50 values were calculated by sigmoidal fitting (Hill1), using the Origin (version 2018, OriginLab Corporation, Northampton, MA, USA) software.
(§3) After CYP450 incubations, the product formation rate was investigated using an integrated HPLC system (Jasco, Tokyo, Japan) built up from an autosampler (AS-4050), a binary pump (PU-4180), and a UV detector (UV-975). Chromatographic data were evaluated employing ChromNAV2 software (Jasco, Tokyo, Japan). Quantitative determinations of 4′-hydroxydiclofenac and diclofenac (CYP2C9), 4-hydroxymephenytoin and mephenytoin (CYP2C19), dextromethorphan and dextrorphan (CYP2D6), as well as testosterone and 6β-hydroxytestosterone (CYP3A4) were carried out as previously reported, without modifications.

Series [2] concerns the target T2, CYP2C19 (Homo sapiens, UniProt P33261).
T2 construct: purchased Merck; host or cells: yeast (inferred from the description of the CYPnull control, 'processed identically')
The procedure: as §1, §2, §3

In series [3] the target is T3, CYP3A4 (Homo sapiens, UniProt P08684).
T3 construct: purchased Merck; host or cells: yeast (inferred from the description of the CYPnull control, 'processed identically')
T3 sequence (P08684 whole entry): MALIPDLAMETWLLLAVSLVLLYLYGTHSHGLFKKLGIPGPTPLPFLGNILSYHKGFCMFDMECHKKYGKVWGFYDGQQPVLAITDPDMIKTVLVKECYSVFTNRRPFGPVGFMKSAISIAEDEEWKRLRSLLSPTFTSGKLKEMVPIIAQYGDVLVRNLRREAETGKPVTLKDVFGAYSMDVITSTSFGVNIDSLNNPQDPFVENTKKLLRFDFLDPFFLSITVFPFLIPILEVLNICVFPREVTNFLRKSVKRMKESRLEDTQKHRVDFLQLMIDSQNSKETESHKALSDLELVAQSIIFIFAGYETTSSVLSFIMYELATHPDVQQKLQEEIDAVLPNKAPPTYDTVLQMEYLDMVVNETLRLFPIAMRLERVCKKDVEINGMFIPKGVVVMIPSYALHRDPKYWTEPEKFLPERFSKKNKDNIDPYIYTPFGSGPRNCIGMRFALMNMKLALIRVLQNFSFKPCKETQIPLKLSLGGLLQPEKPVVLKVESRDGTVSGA
The settings on record: plateau above 10 μM AOH. The procedure:
as §1, §2, §3

T2 sequence (P33261 whole entry): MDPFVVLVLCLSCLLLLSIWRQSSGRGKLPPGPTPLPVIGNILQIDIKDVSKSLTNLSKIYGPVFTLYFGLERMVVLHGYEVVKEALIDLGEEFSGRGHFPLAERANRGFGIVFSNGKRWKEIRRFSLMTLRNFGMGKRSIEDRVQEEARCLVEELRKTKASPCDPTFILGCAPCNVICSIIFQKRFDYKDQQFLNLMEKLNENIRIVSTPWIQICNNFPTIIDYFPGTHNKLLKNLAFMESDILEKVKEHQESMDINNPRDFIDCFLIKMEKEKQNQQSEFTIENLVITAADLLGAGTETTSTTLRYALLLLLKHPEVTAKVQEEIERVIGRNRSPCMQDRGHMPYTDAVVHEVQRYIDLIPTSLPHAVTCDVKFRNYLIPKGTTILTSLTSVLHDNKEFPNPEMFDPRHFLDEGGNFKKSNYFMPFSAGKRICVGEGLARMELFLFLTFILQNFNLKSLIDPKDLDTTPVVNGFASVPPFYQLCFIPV
T1 sequence (P10635 whole entry): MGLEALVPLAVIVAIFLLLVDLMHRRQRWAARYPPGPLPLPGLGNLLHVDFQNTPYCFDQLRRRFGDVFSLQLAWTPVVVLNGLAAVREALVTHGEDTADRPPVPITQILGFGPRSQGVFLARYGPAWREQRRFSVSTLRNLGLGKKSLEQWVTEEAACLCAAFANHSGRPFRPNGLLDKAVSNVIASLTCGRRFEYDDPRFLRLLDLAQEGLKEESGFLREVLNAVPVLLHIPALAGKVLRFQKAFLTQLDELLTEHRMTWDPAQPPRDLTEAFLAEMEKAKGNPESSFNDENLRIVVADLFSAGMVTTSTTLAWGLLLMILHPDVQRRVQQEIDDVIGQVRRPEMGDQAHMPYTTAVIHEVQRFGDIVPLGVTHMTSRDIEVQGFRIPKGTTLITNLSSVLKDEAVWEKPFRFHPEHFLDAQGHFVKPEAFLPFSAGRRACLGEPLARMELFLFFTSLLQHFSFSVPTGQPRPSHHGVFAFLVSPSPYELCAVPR

Consider `Cc1cc(O)cc2oc(=O)c3c(O)cc(O)cc3c12` [AOH, Alternariol], for which the “effect on CYP2D6-catalyzed dextromethorphan demethylation” value in series [1] was “not affected”. For the same compound, the “CYP2C19 inhibition at 5 μM” value in series [2] (5 μM AOH, p < 0.01) is listed as “significantly (p < 0.01) inhibited”. Further, the “decrease in 4-hydroxymephenytoin production (CYP2C19)” value in series [2] (50 μM AOH (highest concentration)) is recorded as 55%. For the same compound, the “CYP3A4 inhibition (decrease in metabolite formation)” value in series [3] is “approximately 40%”.
